The nature of assay [1]: Phage ELISA for skin binding affinity (Example 14). Details: species or system pig. To be noted: 1×10^11 pfu of phage, 37° C. 15 min, TBST-0.5% washes; anti-M13 HRP conjugate; mean of at least three replicates. As to the method: (§1) Phage-peptide clones identified in Examples 11-13 were amplified by infecting fresh host cells (E. coli ER2338). The pigskin-bottom 96-well apparatus system described in Examples 11-13 was used for the ELISA procedure. For each clone to be tested, the pigskin well was incubated for 1 h at room temperature with 400 μL of blocking buffer, consisting of 2% non-fat dry milk (Schleicher & Schuell, Inc.) in TBS. The blocking buffer was removed by inverting the systems and blotting them dry with paper towels. The systems were rinsed 6 times with wash buffer consisting of TBST-0.05%. The wells were filled with 100 μL of TBST-0.5% containing 1 mg/mL of BSA and 1×10^11 pfu of phage. The samples were incubated at 37° C. for 15 min with slow shaking. The non-binding phage was removed by washing the wells 10 to 20 times with TBST-0.5%. Then, 100 μL of horseradish peroxidase/anti-M13 antibody conjugate (Amersham USA, Piscataway, N.J.), diluted 1:500 in the blocking buffer, was added to each well and incubated for 1 h at room temperature. The conjugate solution was removed and the wells were washed 6 times with TBST-0.05%. TMB substrate (200 μL), obtained from Pierce Biotechnology (Rockford, Ill.) was added to each well and the color was allowed to develop for between 5 to 30 min, typically for 10 min, at room temperature. Then, stop solution (200 μL of 2 M H2SO4) was added to each well and the solution was transferred to a 96-well plate and the absorbance at 450 nm (A450) was measured using a microplate spectrophotometer (Molecular Devices, Sunnyvale, Calif.). The resulting absorbance values, reported as the mean of at least three replicates, and the standard error of the mean (SEM) are given in Table 2.
On the technique in general: In an ELISA, binding on a coated surface is turned into a signal by an enzyme label.

Assay [2] in a line: Phage ELISA for skin binding affinity after body wash treatment (Example 15). Further details: species or system pig. To be noted: mean of at least three replicates; for Body Wash A450 ± SEM: 200 μL Johnson's Head-to-Toe Baby Wash for 30 min after phage binding; for Buffer Wash A450 ± SEM: procedure of Example 14. On the procedure: as §1
The ELISA procedure described in Example 14 was used with the following modification. After removal of the non-binding phage peptide solution from the wells, 200 μL of Johnson's Head-to-Toe Baby Wash was added to the wells and was incubated for 30 min. The washes and color development steps described in Example 14 were followed. For the buffer wash samples, the same procedure described in Example 14 was used. […] The resulting absorbance values, reported as the mean of at least three replicates, and the standard error of the mean are given in Table 3.

For assay [3] the following is noted: stated as known; cited from earlier work.

Take “QLSYHAYPQANHHAP (Body wash-resistant skin-binding peptide) [Skin-15mer-1]”: the “A450 ± SEM” value in assay [1] is recorded as 1.264 ± 0.166. Moreover, in assay [2], the “Body Wash A450 ± SEM” value is on record as 1.447 ± 0.178 and the “Buffer Wash A450 ± SEM” value worked out at 1.031 ± 0.045.

For “SDTISRLHVSMT (Body wash-resistant skin-binding peptide) [Skin-12mer-7]”, in assay [1], the “A450 ± SEM” value is 1.134 ± 0.093.

On to “SPYPSWSTPAGR (Body wash-resistant skin-binding peptide) [Skin-12mer-9]”, for which the “A450 ± SEM” value in assay [1] amounted to 1.146 ± 0.131. Further, in assay [2], the “Body Wash A450 ± SEM” value was 2.265 ± 0.132 and the “Buffer Wash A450 ± SEM” value is recorded as 1.298 ± 0.11.

Turning to “GSSTVGRPSLYE (Body wash-resistant skin-binding peptide) [Skin-12mer-6]”, the “A450 ± SEM” value in assay [1] was 0.677 ± 0.104.

For “WPMHPEKGSRWS (Body wash-resistant skin-binding peptide) [Skin-12mer-11]”, the “A450 ± SEM” value in assay [1] stood at 0.81 ± 0.038.

Turning to “SPLTVPYERKLL (Body wash-resistant skin-binding peptide) [Skin-12mer-8]”, in assay [1], the “A450 ± SEM” value stood at 0.433 ± 0.05.

Consider “TMGFTAPRFPHY (Body wash-resistant skin-binding peptide) [Skin-12mer-1]”, for which the “A450 ± SEM” value in assay [1] is 0.506 ± 0.097.

As for “SVSVGMKPSPRP (Body wash-resistant skin-binding peptide) [Skin-12mer-2]”, the “A450 ± SEM” value in assay [1] came to 0.818 ± 0.108.

Regarding “ASCPSASHADPCAH (Body wash-resistant skin-binding peptide) [Skin-cys-2]”, in assay [1], the “A450 ± SEM” value is on record as 1.184 ± 0.044.

“DWCDTIIPGRTCHG (Body wash-resistant skin-binding peptide) [Skin-cys-6]”: in assay [1], the “A450 ± SEM” value is on record as 1.657 ± 0.047.

In the case of “D21: hair-binding phage peptide used as control in Example 15, known low binding affinity for skin (RTNAADHPAAVT; Hair-binding sequence) [Clone D21, reference compound]”, in assay [2], the “Body Wash A450 ± SEM” value turned out to be 0.549 ± 0.053 and the “Buffer Wash A450 ± SEM” value came to 0.297 ± 0.004. For the same substance, the “binding affinity for skin” value in assay [3] is on record as “low binding affinity for skin”.

With “VQPITNTRYEGG (Body wash-resistant skin-binding peptide) [Skin-12mer-10]”, in assay [1], the “A450 ± SEM” value was 0.418 ± 0.036.

Take “NLCDSARDSPRCKV (Body wash-resistant skin-binding peptide) [Skin-cys-3]”: in assay [1], the “A450 ± SEM” value stood at 0.927 ± 0.044.

For “IB5: hair-binding phage peptide (Huang et al.) used as control, known low binding affinity for skin (TPPELLHGDPRS; Hair-binding peptide)”, in assay [2], the “Body Wash A450 ± SEM” value is reported as 0.453 ± 0.035 and the “Buffer Wash A450 ± SEM” value is 0.202 ± 0.010. In assay [3], the “binding affinity for skin” value is given as “low binding affinity for skin”.

On to “DACSGNGHPNNCDR (Body wash-resistant skin-binding peptide) [Skin-cys-4]”, for which the “A450 ± SEM” value in assay [1] is reported as 0.852 ± 0.033.

With “NQAASITKRVPY (Body wash-resistant skin-binding peptide) [Skin-12mer-5]”, in assay [1], the “A450 ± SEM” value came to 0.391 ± 0.036.

As for “SGCHLVYDNGFCDH (Body wash-resistant skin-binding peptide) [Skin-cys-1]”, the “A450 ± SEM” value in assay [1] stood at 1.385 ± 0.046. For the same substance, in assay [2], the “Body Wash A450 ± SEM” value amounted to 1.444 ± 0.293 and the “Buffer Wash A450 ± SEM” value came to 1.182 ± 0.070.

As for “NHSNWKTAADFL (Body wash-resistant skin-binding peptide) [Skin-12mer-4]”, the “A450 ± SEM” value in assay [1] is recorded as 0.874 ± 0.039.
